Laboratory results reported in patent US5086066A, “Method of providing anxiolytic and antipsychotic treatment with substituted benzamides” (priority 1988, dated 1992).

How the values were obtained:
mice = assay: two compartment (dark and light) box test, anxiolytic activity; type: in vivo; conditions: for % time in black compartment / Black compartment rearings/5 min / Black compartment transits/5 min / Delay white → black / White compartment rearings/5 min / White compartment transits/5 min: 40 min after administration, S.E.M. <12.6%, n = 5
Experimental: The two compartment box test was conducted in mice to evaluate anxiolytic activity. This test is based on a natural aversion of mice to light. The apparatus used is a box containing two compartments, one of which is dark (labeled "black compartment" in the Table 1) and the other illuminated (labeled "white compartment" in Table 1). The apparatus is designed to allow the animal to choose between staying in either of the two compartments. Under normal conditions, the mice avoid light and usually remain in the dark compartment. Under the influence of an anxiolytic agent, however, exploration of the illustrated compartment predominates. The test consists of placing each mouse in the center of the illuminated compartment and observing the animal's behavior by video system for 5 minutes. The number of exploratory rearings and the number of displacements (the crossing of lines traced on the floor of each compartment constitute "passages") are then recorded for each compartment. An anxiolytic effect induced by a drug, such as diazepam, is characterized by an increase in the number of exploratory rearings and in the number of passages into the illuminated compartment. The compounds of the invention were injected subcutaneously at variable doses, each dose being administered to a group of 5 mice.

rats = assay: hyperactivity induced by injection of amphetamine into the nucleus accumbens (motor activity), antipsychotic activity; type: in vivo
Experimental: Tests were conducted to measure the antipsychotic activity of the compounds of the invention. In particular, the hyperactivity induced in rats by the perfusion of amphetamine into the nucleus accumbens was evaluated. This test consists in determining the effect of the compounds of the invention on hyperactivity produced in rats by the injection of amphetamine into the nucleus accumbens. Hyperactivity was induced by injecting 20 μg of amphetamine bilaterally into the nucleus accumbens. The compounds of the invention were administered subcutaneously at doses of 1 mg/kg and 10 mg/kg, 40 minutes before the injection of amphetamine. For each dose of test product, a group of 5 animals was used. A group treated only with amphetamine and a reference group which received only an inert vehicle comprised 10 animals.
Immediately after the injection of amphetamine, the rats were placed in individual cages equipped with photoelectric cells. Motor activity, characterized by the number of shifts from place to place in these cages, was determined by the number of interruptions of a light beam striking these cells. The measurements were made during the 80 minutes following the injection of amphetamine. The results, expressed as the number of shifts from place to place per 10-minute period, are collated in Table 2.

[1] = acute toxicity, median lethal dose (LD50) intravenously; conditions: mouse, in vivo, iv
Description: The compounds of the invention were also subjected to a study of acute toxicity when injected intravenously in male mice and female mice, which enabled the median lethal doses (LD50) to be determined.

CCN1CCCC1CNC(=O)c1cc(Br)c(NC2=NC(C)CN2)cc1OC (centres unmarked) [Compound 4, N-(1-ethyl-2-pyrrolidinylmethyl)-2-methoxy-4-[(4,5-dihydro-4-methyl-1H-imidazol-2-yl)amino]-5-bromobenzamide]
% time in black compartment (mice; 0.0001 mg/kg s.c.): 27% | Black compartment rearings/5 min (mice; 0.0001 mg/kg s.c.): 19 rearings/5 min | Black compartment transits/5 min (mice; 0.0001 mg/kg s.c.): 21 transits/5 min | Delay white → black (mice; 0.0001 mg/kg s.c.): 23 s | White compartment rearings/5 min (mice; 0.0001 mg/kg s.c.): 73 rearings/5 min | White compartment transits/5 min (mice; 0.0001 mg/kg s.c.): 82 transits/5 min | % time in black compartment (mice; 0.01 mg/kg s.c.): 31% | Black compartment rearings/5 min (mice; 0.01 mg/kg s.c.): 15 rearings/5 min | Black compartment transits/5 min (mice; 0.01 mg/kg s.c.): 20 transits/5 min | Delay white → black (mice; 0.01 mg/kg s.c.): 22 s | White compartment rearings/5 min (mice; 0.01 mg/kg s.c.): 82 rearings/5 min | White compartment transits/5 min (mice; 0.01 mg/kg s.c.): 83 transits/5 min | % time in black compartment (mice; 0.1 mg/kg s.c.): 34% | Black compartment rearings/5 min (mice; 0.1 mg/kg s.c.): 16 rearings/5 min | Black compartment transits/5 min (mice; 0.1 mg/kg s.c.): 24 transits/5 min | Delay white → black (mice; 0.1 mg/kg s.c.): 38 s | White compartment rearings/5 min (mice; 0.1 mg/kg s.c.): 78 rearings/5 min | White compartment transits/5 min (mice; 0.1 mg/kg s.c.): 99 transits/5 min | minimal effective dose (mice; Mus musculus, sc, 40 min, subcutaneous, mice, read-out: dose at and above which anxiolytic activity is manifested): ≥ 0.0001 mg/kg | Motor activity (rats; 1 mg/kg s.c. 40 min before amphetamine 20 μg, time 10 min): 34 ± 8 shifts from place to place/10 minutes | Motor activity (rats; 1 mg/kg s.c. 40 min before amphetamine 20 μg, time 20 min): 60 ± 13 shifts from place to place/10 minutes | Motor activity (rats; 1 mg/kg s.c. 40 min before amphetamine 20 μg, time 30 min): 40 ± 10 shifts from place to place/10 minutes | Motor activity (rats; 1 mg/kg s.c. 40 min before amphetamine 20 μg, time 40 min): 38 ± 13 shifts from place to place/10 minutes | Motor activity (rats; 1 mg/kg s.c. 40 min before amphetamine 20 μg, time 50 min): 37 ± 10 shifts from place to place/10 minutes | Motor activity (rats; 1 mg/kg s.c. 40 min before amphetamine 20 μg, time 60 min): 16 ± 2 shifts from place to place/10 minutes | Motor activity (rats; 1 mg/kg s.c. 40 min before amphetamine 20 μg, time 70 min): 8 ± 3 shifts from place to place/10 minutes | Motor activity (rats; 1 mg/kg s.c. 40 min before amphetamine 20 μg, time 80 min): 4 ± 2 shifts from place to place/10 minutes | Motor activity (rats; 10 mg/kg s.c. 40 min before amphetamine 20 μg, time 10 min): 38 ± 7 shifts from place to place/10 minutes | Motor activity (rats; 10 mg/kg s.c. 40 min before amphetamine 20 μg, time 20 min): 8 ± 1.4 shifts from place to place/10 minutes | Motor activity (rats; 10 mg/kg s.c. 40 min before amphetamine 20 μg, time 30 min): 9 ± 3 shifts from place to place/10 minutes | Motor activity (rats; 10 mg/kg s.c. 40 min before amphetamine 20 μg, time 40 min): 11 ± 1.6 shifts from place to place/10 minutes | Motor activity (rats; 10 mg/kg s.c. 40 min before amphetamine 20 μg, time 50 min): 5 ± 1 shifts from place to place/10 minutes | Motor activity (rats; 10 mg/kg s.c. 40 min before amphetamine 20 μg, time 60 min): 2 ± 1 shifts from place to place/10 minutes | LD50 ([1]; female mice): 18 mg/kg | LD50 ([1]; male mice): 15.5 mg/kg
